Source: PubChem BioAssay (NCI)
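Briefly, cells in 96-well plates were exposed to five compound concentrations for 48 h, and endpoints were estimated by linear interpolation. GI50 = concentration required for 50% inhibition of growth. TGI is the concentration that stops growth completely.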

Legend:
Experiment in all cases: inhibition of tumour cell growth, NCI panel, 48 h
A549 NSCLC = test system: A549 NSCLC
CAKI-1 renal = test system: CAKI-1 renal
HOP-62 NSCLC = test system: HOP-62 NSCLC
IGROV1 ovarian = test system: IGROV1 ovarian
MCF7 breast = test system: MCF7 breast
MDA-MB-231 breast = test system: MDA-MB-231 breast
SF-268 CNS = test system: SF-268 CNS
SF-295 CNS = test system: SF-295 CNS
SK-MEL-2 melanoma = test system: SK-MEL-2 melanoma
SR leukemia = test system: SR leukemia

SMILES | TGI (A549 NSCLC) [µM] | TGI (CAKI-1 renal) [µM] | TGI (HOP-62 NSCLC) [µM] | TGI (IGROV1 ovarian) [µM] | TGI (MCF7 breast) [µM] | TGI (MDA-MB-231 breast) [µM] | TGI (SF-268 CNS) [µM] | TGI (SF-295 CNS) [µM] | TGI (SK-MEL-2 melanoma) [µM] | TGI (SR leukemia) [µM] | GI50 (A549 NSCLC) [µM] | GI50 (CAKI-1 renal) [µM] | GI50 (HOP-62 NSCLC) [µM] | GI50 (IGROV1 ovarian) [µM] | GI50 (MCF7 breast) [µM] | GI50 (MDA-MB-231 breast) [µM] | GI50 (SF-268 CNS) [µM] | GI50 (SF-295 CNS) [µM] | GI50 (SK-MEL-2 melanoma) [µM]
COC(=O)C1(Cc2ccc3c(c2)CCC3)Cc2ccc3c(c2C1=O)CCC3 (stereo unspecified) | > 100 | > 100 | > 100 | > 100 | > 20.4 | > 87.6 | > 100 | > 72.6 | 15.4 | 7.76 |  |  |  |  |  |  |  |  | 
Nc1nnc(N)n1N | > 100 | > 100 | > 100 | > 100 |  |  | > 100 | > 100 | > 100 | > 100 |  |  |  |  |  |  |  |  | 
COc1ccc2c(c1)/C(=C\c1c(Cl)nc3n1CCS3)C(=O)N2 | > 100 | > 100 | > 100 | > 100 | 48.5 | 27.2 | > 100 | 44.5 |  |  |  |  |  |  |  |  |  |  | 
O=[N+]([O-])c1ccc2c(c1)nc1n2C(c2c(F)cccc2F)SC1 (stereo unspecified) | > 100 | > 100 | > 100 | > 100 | > 100 | > 100 | > 100 | > 100 | > 100 | > 100 |  |  |  |  |  |  |  |  | 
CC1=NNC(=O)C1C1(C(=O)O)CC(c2c[nH]c3ccccc23)=NC(=S)N1 (stereo unspecified) | > 100 | > 100 | > 100 | > 100 |  | 81.7 | > 100 | 91.1 | 81.2 |  |  |  |  |  |  |  |  |  | 
O=C(CC(C(=O)c1ccsc1)c1cccs1)c1ccccc1 (stereo unspecified) | 54.8 | > 100 | > 100 | > 100 | > 100 | > 100 | > 100 | > 100 |  | > 100 |  |  |  |  |  |  |  |  | 
Cc1nc2c(Cl)cc(Cl)cc2c2c1CCO2 | > 100 | > 100 |  | > 100 | > 100 | > 100 | > 100 | > 100 | > 100 | > 100 |  |  |  |  |  |  |  |  | 
O=C1CCCC2=C1CC1=C(CCCC1=O)N2c1ccc(Cl)cc1 | > 100 | > 100 | > 100 | > 100 | > 100 | > 100 | > 100 | > 100 |  | > 100 |  |  |  |  |  |  |  |  | 
COC(=O)[C@@]12CSC[C@]1(C(=O)OC)N[C@@H](c1ccccc1O)C2 | > 100 | > 100 | > 100 | > 100 | > 100 |  | > 100 | > 100 | > 100 | > 100 |  |  |  |  |  |  |  |  | 
CC1OC(NCCNCCNC2OC(C)C(O)C(O)C2O)C(O)C(O)C1O (stereo unspecified) | > 100 |  | > 100 | > 100 | > 100 | > 100 | > 100 | > 100 | > 100 | > 100 |  |  |  |  |  |  |  |  | 
O=C1c2c(c3c4cc(F)ccc4oc3c3[nH]c4ccccc4c23)C(=O)N1O | > 100 | 9.35 | 17.3 | 11.1 | > 100 | 21.6 | 25.4 | 9 | 12.6 |  | 27.1 | 2.09 | 1.33 | 0.46 | 0.596 | 2.68 | 1.2 | 2.33 | 3.06
C(=N\NC1=NCCCCN1)/c1ccc2ccccc2c1 | > 100 |  | > 100 | > 100 | 70.4 | 65.9 | > 100 | 46.3 | 46.7 |  |  |  |  |  |  |  |  |  | 
CC1=C(C)C(=O)OC(C(C)(O)C2(O)CC3OC34C3CC(O)C56OC5C=CC(=O)C6(C)C3CCC42C)C1 (stereo unspecified) | 15.5 | 14.4 | 35.4 | 6.09 | > 39.3 | 13.1 | 7.96 | 15.2 | 10.8 |  |  |  |  |  |  |  |  |  | 
CC(C)(C)OC(=O)NC(CSCc1ccc(C(=O)c2ccccc2)cc1)C(=O)N1CCN(CCCCN2c3ccccc3Sc3cc(N=[N+]=[N-])ccc32)CC1 (stereo unspecified) | > 100 | > 100 | > 100 | > 100 | > 100 | > 100 | > 100 | > 100 | > 100 |  |  |  |  |  |  |  |  |  | 
COc1ccc(C2=C(OC(C)=O)c3cccn3-c3ccc(Cl)cc3S2)cc1 | > 10 | > 10 | > 10 | > 10 | > 10 | > 10 | > 10 | > 10 |  | 7.3 |  |  |  |  |  |  |  |  | 
CC(C#N)(NO)C(C)(C#N)NO (stereo unspecified) | > 100 | > 100 |  | > 100 | > 100 | > 100 | > 100 |  | > 100 | > 100 |  |  |  |  |  |  |  |  | 
C/C(Cc1ccc2c(c1)OCO2)=N\N=c1\sc2ccccc2n1C | > 100 | > 100 | > 100 | > 100 | > 100 | > 100 | > 100 | > 100 | > 100 |  |  |  |  |  |  |  |  |  | 
CCC1(O)C(=O)OCc2c1cc1n(c2=O)Cc2cc3cc4c(cc3nc2-1)OCO4 (stereo unspecified) | 0.259 | 0.046 | < 0.0198 | 1.54 | > 12.8 |  | 0.761 | 0.198 | 2.01 | 3.79 |  |  |  |  |  |  |  |  | 
COc1cc(/C=C2\C(=O)N(c3cccc(NC(C)=O)c3)C(c3ccccc3)S2(=O)=O)cc(OC)c1OC (stereo unspecified) | > 100 | > 100 | > 100 | > 100 | > 100 | > 100 |  | > 100 | > 100 | > 100 |  |  |  |  |  |  |  |  | 
CN(C)CCCNc1ccnc2c([N+](=O)[O-])cccc12 | 75.5 | > 100 | 82.5 |  |  |  | 67.4 | 42.2 |  | 96.4 |  |  |  |  |  |  |  |  | 
N=c1oc2cc(O)ccc2cc1C(=O)Nc1ccccn1 | > 100 | > 100 | > 100 | > 100 | > 100 | > 100 | > 100 | > 100 | 97.2 |  |  |  |  |  |  |  |  |  | 
O=S1(=O)OCCOS(=O)(=O)C1(F)Cc1ccccc1 | > 100 | > 100 | > 100 | > 100 |  | > 100 | > 100 | > 100 | > 100 | > 100 |  |  |  |  |  |  |  |  | 
